According to PMC5218480 (PLoS ONE, 2017):

System: MV-4-11 cells
Assay: Gene expression microarray analysis (Affymetrix PrimeView) and GSEA
Format: cell-based, human
Set-up: RFU PODN (11730768_x_at) / Fold change /veh PODN (11730768_x_at) / RFU LINC00158 (11744669_a_at) / Fold change /veh LINC00158 (11744669_a_at) / RFU DUSP10 (11751237_a_at) / Fold change /veh DUSP10 (11751237_a_at) / RFU ID3 (11757404_x_at) / Fold change /veh ID3 (11757404_x_at) / RFU PLEKHG5 (11737974_s_at) / Fold change /veh PLEKHG5 (11737974_s_at) / RFU LRRC4B (11730491_at) / Fold change /veh LRRC4B (11730491_at) / RFU GIMAP4 (11747438_a_at) / Fold change /veh GIMAP4 (11747438_a_at) / RFU KRT8 (11758183_x_at) / Fold change /veh KRT8 (11758183_x_at) / RFU CNN1 (11734310_a_at) / Fold change /veh CNN1 (11734310_a_at) / RFU VPS37D (11726825_at) / Fold change /veh VPS37D (11726825_at) / RFU C10orf10 (11716522_x_at) / Fold change /veh C10orf10 (11716522_x_at) / RFU KIR2DL2 /// KIR2DL4 /// KIR2DL5A /// KIR2DL5B /// KIR2DS1 /// KIR2DS2 /// KIR2DS3 /// KIR2DS4 /// KIR3DL3 /// KIR3DL3 /// KIR3DS1 (11738374_at) / Fold change /veh KIR2DL2 /// KIR2DL4 /// KIR2DL5A /// KIR2DL5B /// KIR2DS1 /// KIR2DS2 /// KIR2DS3 /// KIR2DS4 /// KIR3DL3 /// KIR3DL3 /// KIR3DS1 (11738374_at) / RFU C1QL1 (11718748_at) / Fold change /veh C1QL1 (11718748_at) / RFU TMPRSS4 (11747572_a_at) / Fold change /veh TMPRSS4 (11747572_a_at) / RFU HAMP (11756126_x_at) / Fold change /veh HAMP (11756126_x_at) / RFU RNFT2 (11725882_a_at) / Fold change /veh RNFT2 (11725882_a_at) / RFU NR4A2 (11747474_a_at) / Fold change /veh NR4A2 (11747474_a_at) / RFU ABCC12 (11746883_a_at) / Fold change /veh ABCC12 (11746883_a_at) / RFU TMEM136 (11760407_x_at) / Fold change /veh TMEM136 (11760407_x_at) / RFU CLDN22 /// WWC2 (11732394_at) / Fold change /veh CLDN22 /// WWC2 (11732394_at) / RFU HLA-DPB1 (11760878_x_at) / Fold change /veh HLA-DPB1 (11760878_x_at) / RFU SPINT1 (11716480_a_at) / Fold change /veh SPINT1 (11716480_a_at) / RFU GAP43 (11754022_s_at) / Fold change /veh GAP43 (11754022_s_at) / RFU A4GNT (11735810_at) / Fold change /veh A4GNT (11735810_at) / RFU PRB3 (11715151_x_at) / Fold change /veh PRB3 (11715151_x_at) / RFU TUBB4B (11761932_at) / Fold change /veh TUBB4B (11761932_at) / RFU CAPN14 (11732068_a_at) / Fold change /veh CAPN14 (11732068_a_at) / RFU TMCC2 (11721928_a_at) / Fold change /veh TMCC2 (11721928_a_at) / RFU IRGQ (11745062_a_at) / Fold change /veh IRGQ (11745062_a_at) / RFU FAM174B (11720279_a_at) / Fold change /veh FAM174B (11720279_a_at) / RFU TMPRSS4 (11748680_a_at) / Fold change /veh TMPRSS4 (11748680_a_at) / RFU FAM212B (11763350_a_at) / Fold change /veh FAM212B (11763350_a_at) / RFU PLEKHG5 (11743358_a_at) / Fold change /veh PLEKHG5 (11743358_a_at) / RFU ZSCAN30 (11745921_a_at) / Fold change /veh ZSCAN30 (11745921_a_at) / RFU CMKLR1 (11741424_a_at) / Fold change /veh CMKLR1 (11741424_a_at) / RFU LOC101060620 /// MAPK8IP1 (11723275_at) / Fold change /veh LOC101060620 /// MAPK8IP1 (11723275_at) / RFU SPTSSB (11747773_x_at) / Fold change /veh SPTSSB (11747773_x_at) / RFU PRSS12 (11739890_at) / Fold change /veh PRSS12 (11739890_at) / RFU BIN1 (11741810_x_at) / Fold change /veh BIN1 (11741810_x_at) / RFU WNT11 (11732464_a_at) / Fold change /veh WNT11 (11732464_a_at) / RFU C10orf10 (11716521_a_at) / Fold change /veh C10orf10 (11716521_a_at) / RFU C5orf56 (11738089_at) / Fold change /veh C5orf56 (11738089_at) / RFU CYB561 (11721691_x_at) / Fold change /veh CYB561 (11721691_x_at) / RFU ANKRD19P (11752326_a_at) / Fold change /veh ANKRD19P (11752326_a_at) / RFU OR2T12 /// OR2T33 /// OR2T8 (11738714_s_at) / Fold change /veh OR2T12 /// OR2T33 /// OR2T8 (11738714_s_at) / RFU VCAN (11748164_a_at) / Fold change /veh VCAN (11748164_a_at) / RFU JSRP1 (11732532_at) / Fold change /veh JSRP1 (11732532_at) / RFU KRTAP10-11 (11738290_x_at) / Fold change /veh KRTAP10-11 (11738290_x_at) / RFU MYO3A (11730013_a_at) / Fold change /veh MYO3A (11730013_a_at) / RFU EBF3 (11725865_a_at) / Fold change /veh EBF3 (11725865_a_at) / RFU CAMK2N1 (11719241_x_at) / Fold change /veh CAMK2N1 (11719241_x_at) / RFU C5orf56 (11738088_a_at) / Fold change /veh C5orf56 (11738088_a_at) / RFU OLFML3 (11715873_a_at) / Fold change /veh OLFML3 (11715873_a_at) / RFU LOC100653217 /// NTM (11731650_a_at) / Fold change /veh LOC100653217 /// NTM (11731650_a_at) / RFU MAPK11 (11762145_a_at) / Fold change /veh MAPK11 (11762145_a_at) / RFU FIZ1 (11724087_x_at) / Fold change /veh FIZ1 (11724087_x_at) / RFU OASL (11726364_x_at) / Fold change /veh OASL (11726364_x_at) / RFU SOX15 (11748057_x_at) / Fold change /veh SOX15 (11748057_x_at) / RFU CD79A (11719716_a_at) / Fold change /veh CD79A (11719716_a_at) / RFU HIST1H1D (11736915_at) / Fold change /veh HIST1H1D (11736915_at) / RFU CASKIN2 (11723855_a_at) / Fold change /veh CASKIN2 (11723855_a_at) / RFU LOC730098 (11760151_x_at) / Fold change /veh LOC730098 (11760151_x_at) / RFU OR4N2 (11742367_at) / Fold change /veh OR4N2 (11742367_at) / RFU PRRT2 (11749266_a_at) / Fold change /veh PRRT2 (11749266_a_at) / RFU SNX32 (11753110_a_at) / Fold change /veh SNX32 (11753110_a_at) / RFU CDHR5 (11726645_a_at) / Fold change /veh CDHR5 (11726645_a_at) / RFU RCAN1 (11760418_a_at) / Fold change /veh RCAN1 (11760418_a_at) / RFU FAM167A (11723789_a_at) / Fold change /veh FAM167A (11723789_a_at) / RFU FAM26E (11764081_at) / Fold change /veh FAM26E (11764081_at) / RFU ISYNA1 (11749810_s_at) / Fold change /veh ISYNA1 (11749810_s_at) / RFU ACY1 (11761880_at) / Fold change /veh ACY1 (11761880_at) / RFU 11764098_at / Fold change /veh 11764098_at / RFU SAMD14 (11745864_x_at) / Fold change /veh SAMD14 (11745864_x_at) / RFU NPB (11741838_a_at) / Fold change /veh NPB (11741838_a_at) / RFU TMPRSS6 (11731388_a_at) / Fold change /veh TMPRSS6 (11731388_a_at) / RFU KRTAP10-2 (11738614_at) / Fold change /veh KRTAP10-2 (11738614_at) / RFU ARHGAP8 /// PRR5-ARHGAP8 (11727945_x_at) / Fold change /veh ARHGAP8 /// PRR5-ARHGAP8 (11727945_x_at) / RFU KRTAP5-7 /// NADSYN1 (11734609_at) / Fold change /veh KRTAP5-7 /// NADSYN1 (11734609_at) / RFU RASL12 (11751679_a_at) / Fold change /veh RASL12 (11751679_a_at) / RFU CDKN2B (11736163_a_at) / Fold change /veh CDKN2B (11736163_a_at) / RFU PRF1 (11729649_at) / Fold change /veh PRF1 (11729649_at) / RFU, ZNF638 /// ZNF638-IT1 / Fold change vs veh, ZNF638 /// ZNF638-IT1 / RFU, PANK3 / Fold change vs veh, PANK3 / RFU, SH3YL1 / Fold change vs veh, SH3YL1 / RFU, ZEB2 / Fold change vs veh, ZEB2 / RFU, NRIP1 / Fold change vs veh, NRIP1 / RFU, PTTG1IP / Fold change vs veh, PTTG1IP / RFU, CAPN2 / Fold change vs veh, CAPN2 / RFU, MED14 / Fold change vs veh, MED14 / RFU, SNORA58 / Fold change vs veh, SNORA58 / RFU, C1orf63 / Fold change vs veh, C1orf63 / RFU, LRRFIP1 / Fold change vs veh, LRRFIP1 / RFU, NDUFAF7 / Fold change vs veh, NDUFAF7 / RFU, SLC12A2 / Fold change vs veh, SLC12A2 / RFU, IBTK / Fold change vs veh, IBTK / RFU, ESF1 / Fold change vs veh, ESF1 / Fold change vs veh, TMEM50B / RFU, TAOK1 / Fold change vs veh, TAOK1 / RFU, ACBD3 / Fold change vs veh, ACBD3 / RFU, TMA16 / Fold change vs veh, TMA16 / RFU, RWDD3 / Fold change vs veh, RWDD3 / RFU, BCAT1 / Fold change vs veh, BCAT1 / RFU, EDEM3 / Fold change vs veh, EDEM3 / RFU, TMEM33 / Fold change vs veh, TMEM33 / RFU, WDR75 / Fold change vs veh, WDR75 / RFU, AHCTF1 / Fold change vs veh, AHCTF1 / RFU, TFRC / Fold change vs veh, TFRC / RFU, ZDHHC17 / Fold change vs veh, ZDHHC17 / RFU, NOM1 / Fold change vs veh, NOM1 / RFU, ARL8B / Fold change vs veh, ARL8B / RFU, ZBTB11 / Fold change vs veh, ZBTB11 / RFU, TAMM41 / Fold change vs veh, TAMM41 / RFU, KIAA1704 /// LOC100996395 / Fold change vs veh, KIAA1704 /// LOC100996395 / RFU, ING1 / Fold change vs veh, ING1 / RFU, TRMT61B / Fold change vs veh, TRMT61B / RFU, FUBP3 / Fold change vs veh, FUBP3 / RFU, TP53 / Fold change vs veh, TP53 / RFU, TNKS2 / Fold change vs veh, TNKS2 / RFU, ZFP14 / Fold change vs veh, ZFP14 / RFU, ACTR2 / Fold change vs veh, ACTR2 / RFU, PPP3R1 / Fold change vs veh, PPP3R1 / RFU, PIK3R1 / Fold change vs veh, PIK3R1 / RFU, HNRNPA1 / Fold change vs veh, HNRNPA1 / RFU, RNF170 / Fold change vs veh, RNF170 / RFU, ZNF28 / Fold change vs veh, ZNF28 / RFU, RNGTT / Fold change vs veh, RNGTT / RFU, OGT / Fold change vs veh, OGT / RFU, BRD1 / Fold change vs veh, BRD1 / RFU, MARS / Fold change vs veh, MARS / RFU, ZNF655 / Fold change vs veh, ZNF655 / RFU, FAHD1 / Fold change vs veh, FAHD1 / RFU, BDP1 / Fold change vs veh, BDP1 / RFU, LRRCC1 / Fold change vs veh, LRRCC1 / RFU, ARID1A / Fold change vs veh, ARID1A / RFU, ZNF146 / Fold change vs veh, ZNF146 / RFU, ZNF330 / Fold change vs veh, ZNF330 / RFU, GPN3 / Fold change vs veh, GPN3 / RFU, C9orf123 / Fold change vs veh, C9orf123 / RFU, N4BP2L2 / Fold change vs veh, N4BP2L2 / RFU, ARFIP1 / Fold change vs veh, ARFIP1 / RFU, FAM179B / Fold change vs veh, FAM179B / RFU, BCL10 / Fold change vs veh, BCL10 / RFU, UHRF1BP1L / Fold change vs veh, UHRF1BP1L / RFU, BET1 / Fold change vs veh, BET1 / RFU, CNOT2 / Fold change vs veh, CNOT2 / RFU, ZNF268 / Fold change vs veh, ZNF268 / Fold change vs veh, ZNF507 / RFU, DGCR2 / Fold change vs veh, DGCR2 / RFU, WDSUB1 / Fold change vs veh, WDSUB1 / Fold change vs veh, HSP90B1 /// MIR3652 / RFU, ADSS / Fold change vs veh, ADSS / RFU, GK / Fold change vs veh, GK / RFU, ZNF148 / Fold change vs veh, ZNF148 / RFU, TAF9 / Fold change vs veh, TAF9 / RFU, SLC1A5 / Fold change vs veh, SLC1A5 / RFU, SLMO2 / Fold change vs veh, SLMO2 / RFU, ABCC4 / Fold change vs veh, ABCC4 / RFU, LOC101060439 /// RAP1B / Fold change vs veh, LOC101060439 /// RAP1B / RFU, RFX7 / Fold change vs veh, RFX7 / RFU, GTPBP10 / Fold change vs veh, GTPBP10 / RFU, CNEP1R1 / Fold change vs veh, CNEP1R1 / RFU, BIVM-ERCC5 /// ERCC5 / Fold change vs veh, BIVM-ERCC5 /// ERCC5 / RFU, ILF3 / Fold change vs veh, ILF3 / RFU 11762660_at / Fold change /veh 11762660_at / RFU VCAN (11757783_s_at) / Fold change /veh VCAN (11757783_s_at) / RFU DDX43 (11728927_at) / Fold change /veh DDX43 (11728927_at) / RFU KRT8 (11758188_x_at) / Fold change /veh KRT8 (11758188_x_at) / RFU NKD1 (11759106_at) / Fold change /veh NKD1 (11759106_at) / RFU SRD5A1 (11742802_a_at) / Fold change /veh SRD5A1 (11742802_a_at) / RFU TPSAB1 /// TPSB2 (11721975_s_at) / Fold change /veh TPSAB1 /// TPSB2 (11721975_s_at) / RFU GSTM3 (11746129_a_at) / Fold change /veh GSTM3 (11746129_a_at) / RFU IL23R (11737362_x_at) / Fold change /veh IL23R (11737362_x_at) / RFU TMEM51 (11727254_a_at) / Fold change /veh TMEM51 (11727254_a_at) / RFU PIWIL2 (11732686_x_at) / Fold change /veh PIWIL2 (11732686_x_at) / RFU ORM1 (11744905_x_at) / Fold change /veh ORM1 (11744905_x_at) / RFU CCDC152 (11743942_at) / Fold change /veh CCDC152 (11743942_at) / RFU ECM1 (11717891_a_at) / Fold change /veh ECM1 (11717891_a_at) / RFU IL23R (11748794_a_at) / Fold change /veh IL23R (11748794_a_at) / RFU TNFAIP8L3 (11732012_x_at) / Fold change /veh TNFAIP8L3 (11732012_x_at) / RFU MBOAT4 (11741988_at) / Fold change /veh MBOAT4 (11741988_at) / RFU 11764193_at / Fold change /veh 11764193_at / RFU TMEM53 (11763286_at) / Fold change /veh TMEM53 (11763286_at) / RFU MAGEB2 (11727129_at) / Fold change /veh MAGEB2 (11727129_at) / RFU TMEM200A (11744735_a_at) / Fold change /veh TMEM200A (11744735_a_at) / RFU CCDC152 (11751479_a_at) / Fold change /veh CCDC152 (11751479_a_at) / RFU FAM211A (11726209_a_at) / Fold change /veh FAM211A (11726209_a_at) / RFU RGS16 (11746705_a_at) / Fold change /veh RGS16 (11746705_a_at) / RFU VCAN (11755009_s_at) / Fold change /veh VCAN (11755009_s_at) / RFU RHOB (11743442_s_at) / Fold change /veh RHOB (11743442_s_at) / RFU RGS16 (11720943_a_at) / Fold change /veh RGS16 (11720943_a_at) / RFU RGS16 (11720944_at) / Fold change /veh RGS16 (11720944_at) / RFU, VPS4B / Fold change vs veh, VPS4B / RFU, CREB1 / Fold change vs veh, CREB1 / RFU, DNAJC13 / Fold change vs veh, DNAJC13 / RFU, GNAQ / Fold change vs veh, GNAQ / RFU, CDK5R1 / Fold change vs veh, CDK5R1 / RFU, ZRANB3 / Fold change vs veh, ZRANB3 / RFU, CUL4A / Fold change vs veh, CUL4A / RFU, CCNY / Fold change vs veh, CCNY / RFU, UFL1 / Fold change vs veh, UFL1 / RFU, COG3 / Fold change vs veh, COG3 / RFU, DIAPH2 / Fold change vs veh, DIAPH2 / RFU, SKA2 / Fold change vs veh, SKA2 / RFU, AFF3 / Fold change vs veh, AFF3 / RFU, LMF1 / Fold change vs veh, LMF1 / RFU, IPO11 / Fold change vs veh, IPO11 / RFU, DFFB / Fold change vs veh, DFFB / RFU, FOXP1 / Fold change vs veh, FOXP1 / RFU, CARD8 / Fold change vs veh, CARD8 / RFU, STRN3 / Fold change vs veh, STRN3 / RFU, ADK / Fold change vs veh, ADK / RFU, RASSF2 / Fold change vs veh, RASSF2 / RFU, WIPF1 / Fold change vs veh, WIPF1 / RFU, LARP1B / Fold change vs veh, LARP1B / RFU, RASA1 / Fold change vs veh, RASA1 / RFU, RB1 / Fold change vs veh, RB1 / RFU, PPFIA1 / Fold change vs veh, PPFIA1 / RFU, MAT2A / Fold change vs veh, MAT2A / RFU, CCT5 / Fold change vs veh, CCT5 / RFU, WDR92 / Fold change vs veh, WDR92 / RFU, CUX1 / Fold change vs veh, CUX1 / RFU, TTC7A / Fold change vs veh, TTC7A / RFU, TMEM135 / Fold change vs veh, TMEM135 / RFU, DEPTOR / Fold change vs veh, DEPTOR / RFU, CPM / Fold change vs veh, CPM / RFU, DNAJB6 / Fold change vs veh, DNAJB6 / RFU, CACNA2D3 / Fold change vs veh, CACNA2D3 / RFU, DTX4 / Fold change vs veh, DTX4 / RFU, TFCP2 / Fold change vs veh, TFCP2 / RFU, GMCL1 /// GMCL1P1 / Fold change vs veh, GMCL1 /// GMCL1P1 / RFU, AEBP2 / Fold change vs veh, AEBP2 / RFU, SNHG1 /// SNORD22 /// SNORD25 /// SNORD26 /// SNORD27 /// SNORD28 /// SNORD29 /// SNORD31 / Fold change vs veh, SNHG1 /// SNORD22 /// SNORD25 /// SNORD26 /// SNORD27 /// SNORD28 /// SNORD29 /// SNORD31 / Fold change (Aza/veh), C12orf56 (ProbeSet 11735607_a_at) / Fold change (ACY-1035/veh), C12orf56 (ProbeSet 11735607_a_at) / Fold change (Aza/veh), FGFR1OP (ProbeSet 11751329_s_at) / Fold change (ACY-1035/veh), FGFR1OP (ProbeSet 11751329_s_at) / Fold change (Aza/veh), VPS36 (ProbeSet 11739960_a_at) / Fold change (ACY-1035/veh), VPS36 (ProbeSet 11739960_a_at) / RFU SYPL1 (11715823_x_at) / Fold change /veh SYPL1 (11715823_x_at) / RFU IGFBP7 (11715501_s_at) / Fold change /veh IGFBP7 (11715501_s_at) / RFU REEP3 (11722064_at) / Fold change /veh REEP3 (11722064_at) / RFU IGLL1 (11728026_x_at) / Fold change /veh IGLL1 (11728026_x_at): dose or concentration left out as unconfirmed
Conditions: MV-4-11 cells, 48 hours

SMILES: Nc1ncn([C@@H]2O[C@H](CO)[C@@H](O)[C@H]2O)c(=O)n1 [azacitidine]
- RFU RHOB (11743442_s_at): 110.59 RFU
